What was measured:
Format in all cases: cell-based
[1] = target: T1, hLPAR1 (human lysophosphatidic acid receptor 1) (Homo sapiens, UniProt Q92633); assay: FLIPR intracellular calcium assay, hLPAR1 expressed in CHO-K1 cells; conditions: antagonism of 1 μM LPA-induced calcium increase, CHO-K1 cells expressing hLPAR1; read-out: LPAR1 IC50
T1 construct: expressed in transfected cells
Description: The antagonist property of the compounds disclosed herein was determined using the FLIPR (fluorescence imaging plate reader) method, wherein the compounds are inhibitors for the intracellular calcium increase induced by activation of hLPAR1 (human lysophosphatidic acid receptor 1, accession No. NM_001401.4) expressed in CHO-K1 cells (Chinese hamster ovary cells K1, ATCC).
CHO-K1 cells stably expressing hLPAR1 were cultured in F-12 medium containing 10% FBS (fetal bovine serum, Gibco, 10099-141), 1% penicillin-streptomycin (Gibco, 15140-122) and 0.4 mg/mL hygromycin B (Gibco, 10687010) in a cell incubator (37° C., […]). During 18-24 h prior to the FLIPR experiment, cells at 250,000 cells/mL were seeded into a 96-well plate (25,000 cells/well) and incubated overnight in the cell incubator. On the day of the experiment, the medium was discarded and the cells were washed in a FLIPR buffer (0.3 mL of probenecid (Thermo, P36400), 0.6 mL of 1 M HEPES (Invitrogen, 15630080) and 29.1 mL of HBSS (Invitrogen, 14065056) per 30 mL of buffer). Each well was added with 75 μL of 1 mM Fluo-4 AM fluorescent dye (Thermo, F14202) and then the cells were subjected to dye-loading incubation at 37° C. for 1.0 h. The 96-well plate was then washed once with buffer, added with a buffer containing a test compound or vehicle at 50 μL per well and then incubated for 30 min at room temperature. The cell plate was then placed in the FLIPR for baseline fluorescence measurements (excitation at 485 nm and emission at 525-535 nm). An agonist (oleoyl-L-α-lysophosphatidic acid sodium salt (Sigma, L7260) at a final concentration of 1 μM) or a vehicle (ultrapure water) was then added at 50 μL/well, fluorescence values were measured for 2 min at 1-second intervals, and finally the output fluorescence counts were analyzed.

[2] = test system: A2058 (human melanoma cells); assay: A2058 cell scratch assay (cell migration inhibition); conditions: A2058 scratch area 0 h vs 24 h, 10 μM LPA, read-out: Cell migration inhibition rate
Description: The activity of the compounds disclosed herein at the cell level in vitro is evaluated by A2058 (human melanoma cells, Beina Bio, BNCC341099) cell scratch assay. The inhibitory activity of the compounds against LPAR1 can be reflected by inhibition of cell scratch healing.
A2058 cells in a T75 cm^2 cell culture flask were digested and gently pipetted into single cells, adjusted to a cell density of 4×10^5 cells/mL, and then seeded into a 24-well plate. After the cell confluence reached 80%, the cell culture plate was taken out and the original medium was discarded. Serum-free medium was then added, and the cells were starved overnight in an incubator (37° C., 5% CO2). The cell culture plate was then taken out, and cell scratches were made along the diameter of the wells using a 200 μL pipette tip. The cell culture plate was then added with 500 μL of serum-free medium and then shaken gently to wash away the residual cells on the scratched surface, and this was repeated twice. The medium was discarded and 500 μL of 1% FBS medium containing the compound was then added, and the mixture was incubated at 37° C. for 30 min. […] Olympus CKX53 was used to observe the scratches, and MShot image analysis system was used to take pictures and measure the scratch area at 0 h. Then the cell culture plate was incubated in the incubator (37° C., 5% CO2). 24 h later, the scratches were observed again with Olympus CKX53, and MShot image analysis system was used to take pictures and measure the scratch area at 24 h. Cell migration inhibition rate was calculated according to the following formula: […]

[3] = In vitro cytotoxicity assay in HepG2 cells, CCK-8 method; conditions: human, 48 h incubation
Description: In vitro cytotoxicity assay for the compounds disclosed herein was performed in HepG2 cells using the CCK-8 method. HepG2 cells (Beina Bio) in the logarithmic growth phase were collected, the concentration of cell suspension was adjusted, and then the cells were plated on a 96-well cell culture plate at 50,000 cells/well. • The cells were then incubated overnight in a cell incubator (5% CO2, 37° C.), and after 80-90% cell confluence was achieved, test compounds or vehicle (DMSO) at various concentration gradients were added after medium change. The resulting mixture was incubated in the cell incubator (5% CO2, 37° C.) for 48 h. After the treatment, the medium in the plate was discarded. The plate was washed twice with PBS, added with CCK-8 working solution (Beyotime) at 100 μL per well, and then incubated at 37° C. for 1.5 h in the dark. Absorbance at OD450nm was measured for each well on a microplate reader, and CC50 value of each compound was analyzed and calculated.

T1 sequence (Q92633 whole entry): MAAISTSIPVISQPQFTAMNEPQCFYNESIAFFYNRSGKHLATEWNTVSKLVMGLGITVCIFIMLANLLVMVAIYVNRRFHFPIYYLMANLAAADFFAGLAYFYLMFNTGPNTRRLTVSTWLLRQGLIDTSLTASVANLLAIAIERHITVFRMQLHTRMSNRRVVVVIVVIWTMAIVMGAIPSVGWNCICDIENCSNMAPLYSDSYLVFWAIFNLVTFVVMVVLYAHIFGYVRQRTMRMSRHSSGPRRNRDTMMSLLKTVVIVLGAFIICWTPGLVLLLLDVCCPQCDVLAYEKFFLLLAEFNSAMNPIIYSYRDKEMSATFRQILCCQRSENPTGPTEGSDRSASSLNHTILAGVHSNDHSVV

IC50 [1] [nM]	SMILES	inhibition [2] [%]	CC50 at 48 h [3] [nM]
50 to 300	Cn1nnc(-c2ccc(O[C@H]3CCC[C@H](C(=O)O)C3)cc2)c1-c1cn(Cc2ccccc2)c(=O)o1 [Compound 8]	0 to 30	> 200000
300 to 10000	Cn1nnc(-c2ccc(O[C@H]3CCC[C@H](C(=O)O)C3)cc2)c1CNc1ncc(C2CCCC2)o1 (racemic) [Compound 38]	–	–
50 to 300	Cn1nnc(-c2ccc(O[C@H]3CCC[C@H](C(=O)O)C3)cc2)c1CNC(=O)Cc1ccccc1 [Compound 4, (1S,3S)-3-((4-(5-(2-N-phenylacetamido))-1-methyl-1H-1,2,3-triazol-4-yl)-phenoxy)cyclohexane-1-carboxylic acid]	30 to 50	> 200000
50 to 300	CN(Cc1ccccc1)C(=O)OCc1c(-c2ccc(OCCC(=O)O)cc2)nnn1C [Compound 11, 3-(4-(5-(((benzyl(methyl)carbamoyl)oxo)methyl)-1-methyl-1H-1,2,3-triazol-4-yl)phenoxy)propionic acid]	0 to 30	> 200000
300 to 10000	CN(C(=O)OCc1c(-c2ccc(O[C@H]3CCC[C@H](C(=O)O)C3)cc2)nnn1C1CC1)C1CCCC1 [Compound 35]	–	–
50 to 300	CN(C(=O)Cc1c(-c2ccc(O[C@H]3CCC[C@H](C(=O)O)C3)cc2)nnn1C)C1CCCC1 (racemic) [Compound 19]	0 to 30	> 200000
300 to 10000	Cn1nnc(-c2ccc(O[C@H]3CCC[C@H](C(=O)O)C3)cc2)c1NCc1ccccc1 (racemic) [Compound 24, (+/−)-(1S,3S)-3-(4-(5-(benzylamino)-1-methyl-1H-1,2,3-triazol-4-yl)phenoxy) cyclohexane-1-carboxylate]	0 to 30	> 200000
300 to 10000	Cn1nnc(-c2ccc(O[C@H]3CCC[C@H](C(=O)O)C3)cc2)c1Cn1ccn(Cc2ccccc2)c1=O (racemic) [Compound 16, (+/−)-(1S,3S)-3-(4-(5-((3-benzyl-2-carbonyl-2,3-dihydro-1H-imidazol-1-yl)methyl)-1-methyl-1H-1,2,3-triazol-4-yl)phenoxy)cyclohexane-1-carboxylic acid]	30 to 50	> 200000
50 to 300	Cn1nnc(-c2ccc(O[C@H]3CCC[C@H](C(=O)O)C3)cc2)c1CNC(=O)C1CCCC1 (racemic) [Compound 20, (+/−)-(1S,3S)-3-(4-(5-(cyclopentanecarboxamido<oxalylamino>methyl)-1-methyl-1H-1,2,3-triazol-4-yl)phenoxy)cyclohexane-1-carboxylate]	30 to 50	> 200000
300 to 10000	CN(C(=O)CCc1nnn(C)c1-c1ccc(O[C@H]2CCC[C@H](C(=O)O)C2)c(C(F)(F)F)n1)C1CCCC1 (racemic) [Compound 27-B, (+/−)-(1S,3S)-3-((6-(4-(3-(cyclopentyl(methyl)amino)-3-carbonylpropyl)-1-methyl-1H-1,2,3-triazol-5-yl)-2-(trifluoromethyl)pyridin-3-yl)oxo)cyclohexane-1-carboxylic acid]	0 to 30	> 200000
50 to 300	CN(Cc1ccccc1)C(=O)OCc1cn(-c2ccc(O[C@H]3CCC[C@H](C(=O)O)C3)cc2)nn1 (racemic) [Compound 6, (+/−)-(1S,3S)-3-(4-(4-(((benzyl(methyl)carbamoyl)oxo)methyl)-1H-1,2,3-triazol-1-yl)phenoxy)cyclohexane-1-carboxylic acid]	30 to 50	> 200000
300 to 10000	Cc1nnn(-c2ccc(O[C@H]3CCC[C@H](C(=O)O)C3)cc2)c1N(C)C(=O)OC1CCCC1 (racemic) [Compound 34]	–	–
300 to 10000	Cn1nnc(-c2ccc(O[C@H]3CCC[C@H](C(=O)O)C3)cc2)c1CNC(=O)/C=C/c1ccccc1 (racemic) [Compound 5]	0 to 30	> 200000
50 to 300	Cn1nnc(-c2ccc(O[C@H]3CCC[C@H](C(=O)O)C3)cc2)c1COC1CCCC1 (racemic) [Compound 21, (+/−)-(1S,3S)-3-(4-(5-((cyclopentyloxy)methyl)-1-methyl-1H-1,2,3-triazol-4-yl)phenoxy)cyclohexane-1-carboxylic acid]	30 to 50	> 200000
300 to 10000	CN(Cc1ccccc1)C(=O)OCc1c(-c2ccc(O[C@H]3CCC[C@H](C(=O)O)C3)o2)nnn1C (racemic) [Compound 12]	0 to 30	> 200000
50 to 300	CN(Cc1ccccc1)C(=O)OCc1c(-c2ccc(O/C=C/C(=O)O)cc2)nnn1C [Compound 10, (E)-3-(4-(5-(((benzyl(methyl)carbamoyl)oxo)methyl)-1-methyl-1H-1,2,3-triazol-4-yl)phenoxy)acrylic acid]	30 to 50	> 200000
50 to 300	Cn1nnc(-c2ccc(O[C@H]3CCC[C@H](C(=O)O)C3)c(C(F)(F)F)n2)c1CNC(=O)OC1CCCC1 (racemic) [Compound 28, (+/−)-(1S,3S)-3-((6-(5-((((cyclopentyloxy)carbonyl)amino)methyl)-1-methyl-1H-1,2,3-triazol-4-yl)-2-(trifluoromethyl)pyridin-3-yl)oxo)cyclohexane-1-carboxylic acid]	50 to 70	> 200000
50 to 300	CN(Cc1ccccc1)C(=O)NCc1c(-c2ccc(O[C@H]3CCC[C@H](C(=O)O)C3)cc2)nnn1C (racemic) [Compound 1]	30 to 50	> 200000
50 to 300	Cn1nnc(-c2ccc(O[C@H]3CCC[C@H](C(=O)O)C3)cc2)c1COCc1ccccc1 (racemic) [Compound 23, (+/−)-(1S,3S)-3-(4-(5-((benzyloxy)methyl)-1-methyl-1H-1,2,3-triazol-4-yl)phenoxy)cyclohexane-1-carboxylic acid]	30 to 50	> 200000
300 to 10000	Cn1nnc(-c2ccc(O[C@H]3CCC[C@H](C(=O)O)C3)c(C(F)(F)F)n2)c1C1CN(C2CCCC2)C(=O)O1 (some centres unmarked) [Compound 29]	0 to 30	> 200000
300 to 10000	Cn1nnc(-c2ccc(O[C@H]3CCC[C@H](C(=O)O)C3)cc2)c1NC(=O)Cc1ccccc1 (racemic) [Compound 37]	–	–
≤ 50	Cn1nnc(C#CO[C@H]2CCC[C@H](C(=O)O)C2)c1COc1nccc(C2CC2)n1 (racemic) [Compound 39]	–	–
300 to 10000	CN(Cc1ccccc1)C(=O)OCc1c(C2CC2O[C@H]2CCC[C@H](C(=O)O)C2)nnn1C (mixture of isomers) [Compound 32]	–	–
300 to 10000	Cn1nnc(-c2ccc(O[C@H]3CCC[C@H](C(=O)O)C3)cc2)c1CS(=O)(=O)NC1CCCC1 (racemic) [Compound 33]	–	–
300 to 10000	Cn1nnc(-c2ccc(O[C@H]3CCC[C@H](C(=O)O)C3)cc2)c1NCC1CCCC1 (racemic) [Compound 36]	–	–
